Measured values published in publication PMC5438364, “A broad-spectrum bactericidal lipopeptide with anti-biofilm properties” (Scientific Reports, 2017).
In brackets after ≈: the same amount, converted by molar mass. Where a SMILES comes first, the peptide text is derived from it. [ ]: non-standard residue; d: D form. The star is where a group is joined. Myristoyl = CCCCCCCCCCCCCC(=O)*; 12Ado = NCCCCCCCCCCCC(=O)O

Columns and labels:
S. mutans ATCC 35668 = assay: Bactericidal kinetics (time-kill); assay type: cell-based, Streptococcus mutans
Experimental: (§1) Bactericidal kinetics was assessed by incubating 5 × 10^5 CFU/ml of mid-log-phase bacteria with the OAK for 3 hr at 37 °C with shaking. Aliquots were taken at t = 0, 0.5, 1, 2 and 3 hr, subjected to serial 10-fold dilutions in saline (NaCl = 0.85%) and plated for enumeration after 24–48 hr incubation at 37 °C.

Staphylococci = assay type: cell-based
Experimental: (§2) Staphylococci, Bacilli, Escherichia, Pseudomonas, Acinetobacter, Salmonella and Klebsiella species were grown in Luria Bertani broth (LB; 5 gr/l NaCl, 5 gr/l yeast extract, 10 gr/l tryptone). Enterococci and E. coli ML-35p were grown in Tryptic Soy Broth (TSB). Listeria and Streptococci were grown in Brain Heart Infusion (BHI). All bacteria were grown over-night at 37 °C with shaking. S. mutans 35668 plated on BHI agar for enumeration was grown for 48 hr. S. mutans UA159 was grown in 5% CO2 enriched atmosphere. Fusobacterium and Porphyromonas were grown in Wilkins-Chalgren growth medium and an anaerobic atmosphere.
(§3) Minimal inhibitory concentration (MIC) was determined using the microdilution assay. Mid-log-phase bacteria at 5 × 10^5 CFU/ml were incubated in a 96-well plate with serial two-fold dilutions of the tested compound for 18–24 hr at 37 °C (final volume of 200 µl). O.D. at 620 nm was measured (Synergy HT, BioTek Instruments, Winooski, VT, USA), and the MIC was determined as the lowest concentration for which no increase in O.D. was detected.

Enterococci = assay type: cell-based
Experimental: as §2, §3

Listeria = assay type: cell-based
Experimental: as §2, §3

Streptococci = assay type: cell-based
Experimental: as §2, §3

[1] = system: Gram-positive bacteria (GPB); conditions: 48 h
Fusobacterium = assay type: cell-based, Fusobacterium nucleatum; conditions: 48 h
From the text: Gram-negative bacteria tested were: ATCC strains Escherichia coli 25922, 43894, Pseudomonas aeruginosa 27853, 9027, Acinetobacter baumannii 19606, A. caloaceticus 31299, Salmonella Typhimurium 14028, Fusobacterium nucleatum 23726, Porphyromonas gingivalis 53977, clinical isolates E. coli 14182, 14384, U-16327, U-16329, P. aeruginosa 1278, Klebsiella pneumoniae 1287, K2–224, C2, A. baumannii 1279, 1280, 1281, F. nucleatum PK 1594, the engineered E. coli ML-35p and the isogenic K-12 pair AG100, AG100a (ΔacrAB). Dental related bacteria (generous gift of Prof. Doron Steinberg and Gilad Bachrach from the Hebrew University of Jerusalem) appear in bold characters.
as §2, with “S. mutans UA159 was grown in 5% CO2 enriched atmosphere. Fusobacterium and Porphyromonas were grown in Wilkins-Chalgren growth medium and an anaerobic atmosphere.” left out
Minimal inhibitory concentration (MIC) was determined using the microdilution assay. […] O.D. at 620 nm was measured (Synergy HT, BioTek Instruments, Winooski, VT, USA), and the MIC was determined as the lowest concentration for which no increase in O.D. was detected.

E. coli ML-35p = assay: Bactericidal kinetics (time-kill); assay type: cell-based, Escherichia coli; conditions: within 2 hours exposure at ≥MIC; 5 × 10^5 CFU/ml, 37 °C
Experimental: as §1

[2] = system: S. mutans ATCC 35668 biofilm; assay: Anti-biofilm activity on pre-formed biofilm; assay type: cell-based, Streptococcus mutans; conditions: ≥0.5 mM, within one hour of exposure, inoculum 10^9 CFU/ml
Experimental: Anti-biofilm activity was evaluated against established biofilms in 96-well plates as follows. 200 µl of mid-log-phase S. mutans 35668 at 5 × 10^5 CFU/ml in BHI containing 2% sucrose were placed in each well, and plates were incubated for 24 hr at 37 °C without shaking. Unattached cells were removed by decanting the plates and biofilms were washed three times with milliQ water. Solutions of the tested compounds were placed on the biofilms for up to 3 hr at 37 °C without shaking. Plates were decanted in 0.5 hr intervals and biofilms were washed three times with milliQ water to remove any compound residues. Biofilms were scraped from the bottom of the wells, suspended in BHI and sonicated for 5 min in a sonication bath, subjected to serial 10-fold dilutions in saline and plated on BHI agar for enumeration.

[3] = Self-assembly in solution by light scattering; assay type: physicochemical; conditions: for critical aggregation concentration: light scattering at 90°, 400 nm
Experimental: To assess the OAK’s self-assembly in solution, serial two-fold dilutions of the OAK (initial concentration of 200 µM) were prepared in phosphate buffered saline (PBS; 10 mM Na2HPO4, 154 mM NaCl, pH = 7.4) and incubated for 2 hr at room temperature (RT). Light scattering at a 90° angle was measured through a 1 nm slit while holding both excitation and emission at 400 nm (Spectrophotometer Fluorolog-3 FL3–22; Horiba Jobin Yvon, Edison, NJ, USA). To evaluate the disassembly of these aggregates upon bacterial exposure, an OAK solution (200 µM) was incubated (2 hr in PBS, at RT) after which, bacteria were added (10^5 CFU/ml) and the light scattering evolution of these suspensions was monitored as described above.

CCCCCCCCCCCCCC(=O)N[C@@H](CCCCN)C(=O)N[C@@H](CCCCN)C(=O)NCCCCCCCCCCCC(=O)N[C@@H](CCCCN)C(N)=O [C14KKc12K] (Myristoyl-KK[12Ado]K-NH2)
bactericidal concentration (S. mutans ATCC 35668; time-kill kinetics in BHI): 1.56 µM
reduction of viability (S. mutans ATCC 35668; within 2 hours exposure to 1.56 µM, 5 × 10^5 CFU/ml, 37 °C): ~ 2 log units
MIC range (Staphylococci): 1.56 to 3.12 µM
MIC range (Enterococci): 3.12 to 6.25 µM
MIC range (Listeria): 3.12 µM
MIC range (Streptococci): 0.78 to 3.12 µM
MIC50 [1]: 3 µM (≈ 2.43 µg/mL)
MIC range (Fusobacterium): 6.25 µM
reduction of viability (E. coli ML-35p): > 2 log-unit
killing of the initial inoculum in preformed biofilm [2]: > 99%
disaggregation in presence of bacteria (light scattering) ([3]; OAK 200 µM in PBS, 2 hr RT, then 10^5 CFU/ml S. aureus or E. coli, compared with C12KKc12K): greater tendency to disaggregate in presence of bacteria
critical aggregation concentration ([3]; PBS pH 7.4, 2 hr at RT): 23 ± 3 µM
concentration of sharp divergence of light scattering pattern (higher amplitudes) ([3]; PBS pH 7.4, 2 hr at RT, two-fold dilutions from 200 µM): ~ 20 µM
critical aggregation concentration ([3]; supernatant of centrifuged saliva): 8 ± 1 µM
